Assay results reported in patent US12655116B2, “Substituted isophthalic acid diamides” (Bayer Aktiengesellschaft, priority 2020, dated 2026).

Assays:
ABUTH [1] = assay: Pre-emergence herbicidal action against ABUTH; assay type: in vivo, Abutilon theophrasti; details: for Pre-emergence action against ABUTH (herbicidal activity): 80 g/ha, scored visually after 3 weeks vs untreated controls (100% = plants have died, 0% = like control plants); for Pre-emergence action against ABUTH (herbicidal activity in percent): dosage 20 g/ha, scored visually after 3 weeks vs untreated controls, 100% = plants have died, 0% = like control plants
Method in brief: (§1)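 Pre-emergence soil-surface spray of formulated compound (WP or EC; 600 to 800 l/ha; 0.2% wetting agent) over seeds sown in sandy loam. After 3 weeks under greenhouse conditions, damage is estimated visually in percent against untreated plants.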

ALOMY [2] = assay: Pre-emergence herbicidal action against ALOMY; assay type: in vivo, Alopecurus myosuroides; details: 80 g/ha, pre-emergence, scored visually after 3 weeks vs untreated controls (100% = plants have died, 0% = like control plants)
Method in brief: as §1

AMARE [3] = assay: Pre-emergence herbicidal action against AMARE; assay type: in vivo, Amaranthus retroflexus
Method in brief: as §1

AVEFA [4] = assay: Pre-emergence herbicidal action against AVEFA; assay type: in vivo, Avena fatua; details: 80 g/ha, pre-emergence
Method in brief: as §1

ECHCG [5] = assay: Pre-emergence herbicidal action against ECHCG; assay type: in vivo, Echinochloa crus-galli
Method in brief: as §1

HORMU [6] = assay: Pre-emergence herbicidal action against HORMU; assay type: in vivo, Hordeum murinum; details: 80 g/ha, pre-emergence
Method in brief: as §1

LOLRI = assay: Pre-emergence herbicidal action against LOLRI; assay type: in vivo, Lolium rigidum; details: 80 g/ha
Method in brief: as §1

MATIN [7] = assay: Pre-emergence herbicidal action against MATIN; assay type: in vivo, Matricaria inodora
Method in brief: as §1

PHBPU [8] = assay: Pre-emergence herbicidal action against PHBPU; assay type: in vivo, Pharbitis purpurea; details: dosage 80 g/ha
Method in brief: as §1

POLCO = assay: Pre-emergence herbicidal action against POLCO; assay type: in vivo, Polygonum convolvulus; details: dosage 80 g/ha
Method in brief: as §1

SETVI [9] = assay: Pre-emergence herbicidal action against SETVI; assay type: in vivo, Setaria viridis; details: dosage 80 g/ha
Method in brief: as §1

STEME [10] = assay: Pre-emergence herbicidal action against STEME; assay type: in vivo, Stellaria media
Method in brief: as §1

VERPE [11] = assay: Pre-emergence herbicidal action against VERPE; assay type: in vivo, Veronica persica; details: dosage 80 g/ha
Method in brief: as §1

VIOTR [12] = assay: Pre-emergence herbicidal action against VIOTR; assay type: in vivo, Viola tricolor
Method in brief: as §1

DIGSA [13] = assay: Pre-emergence herbicidal action against DIGSA; assay type: in vivo, Digitaria sanguinalis
Method in brief: as §1

ABUTH [14] = assay: Post-emergence herbicidal action against ABUTH; assay type: in vivo, Abutilon theophrasti; details: visual assessment about 3 weeks after treatment vs untreated controls
Method in brief: (§2)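 Greenhouse plants in sandy loam were sprayed at the one-leaf stage, 2 to 3 weeks after sowing, with WP or EC formulations as aqueous suspension or emulsion (600 to 800 l/ha water, 0.2% wetting agent). Visual damage was scored about 3 weeks later versus untreated controls, 0% = like control, 100% = dead.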

ALOMY [15] = assay: Post-emergence herbicidal action against ALOMY; assay type: in vivo, Alopecurus myosuroides; details: dosage 20 g/ha, visual assessment about 3 weeks after treatment vs untreated controls
Method in brief: as §2

AMARE [16] = assay: Post-emergence herbicidal action against AMARE; assay type: in vivo, Amaranthus retroflexus; details: 20 g/ha, visual assessment about 3 weeks after treatment, 100% = plants have died, 0% = like control plants
Method in brief: as §2

ECHCG [17] = assay: Post-emergence herbicidal action against ECHCG; assay type: in vivo, Echinochloa crus-galli
Method in brief: as §2

HORMU [18] = assay: Post-emergence herbicidal action against HORMU; assay type: in vivo, Hordeum murinum; details: dosage 20 g/ha
Method in brief: as §2

MATIN [19] = assay: Post-emergence herbicidal action against MATIN; assay type: in vivo, Matricaria inodora
Method in brief: as §2

PHBPU [20] = assay: Post-emergence herbicidal action against PHBPU; assay type: in vivo, Pharbitis purpurea
Method in brief: as §2

STEME [21] = assay: Post-emergence herbicidal action against STEME; assay type: in vivo, Stellaria media
Method in brief: as §2

VERPE [22] = assay: Post-emergence herbicidal action against VERPE; assay type: in vivo, Veronica persica
Method in brief: as §2

VIOTR [23] = assay: Post-emergence herbicidal action against VIOTR; assay type: in vivo, Viola tricolor
Method in brief: as §2

AVEFA [24] = assay: Post-emergence herbicidal action against AVEFA; assay type: in vivo, Avena fatua; details: 20 g/ha, visual assessment about 3 weeks after treatment, 100% = plants have died, 0% = like control plants
Method in brief: as §2

SETVI [25] = assay: Post-emergence herbicidal action against SETVI; assay type: in vivo, Setaria viridis
Method in brief: as §2

DIGSA [26] = assay: Post-emergence herbicidal action against DIGSA; assay type: in vivo, Digitaria sanguinalis
Method in brief: as §2

[27] = 20 g/ha, scored visually after 3 weeks vs untreated controls, 100% = plants have died, 0% = like control plants
[28] = 80 g/ha, scored visually after 3 weeks vs untreated controls (100% = plants have died, 0% = like control plants)

CCn1nnnc1NC(=O)c1ccc(C(F)F)c(C(=O)NC2CC2)c1C [Example 2-46]
Pre-emergence action against ABUTH (herbicidal activity) (ABUTH [1]): 100% | Pre-emergence action against ABUTH (herbicidal activity in percent) (ABUTH [1]): 100% | Pre-emergence action against ALOMY (herbicidal activity) (ALOMY [2]): 100% | Pre-emergence action against AMARE in % (AMARE [3]; [27]): 100% | Pre-emergence action against AMARE in % (AMARE [3]; [28]): 100% | Pre-emergence action against AVEFA in % (AVEFA [4]): 100% | Pre-emergence action against ECHCG in % (ECHCG [5]; 80 g/ha): 90% | Pre-emergence action against HORMU in % (HORMU [6]): 90% | Pre-emergence action against LOLRI in % (LOLRI): 90% | Pre-emergence action against MATIN in % (MATIN [7]; dosage 20 g/ha): 90% | Pre-emergence action against MATIN in % (MATIN [7]; dosage 80 g/ha): 100% | Pre-emergence action against PHBPU in % (PHBPU [8]): 90% | Pre-emergence action against POLCO in % (POLCO): 90% | Pre-emergence action against SETVI in % (SETVI [9]): 100% | Pre-emergence action against STEME in % (STEME [10]; dosage 20 g/ha): 90% | Pre-emergence action against STEME in % (STEME [10]; dosage 80 g/ha): 100% | Pre-emergence action against VERPE in % (VERPE [11]): 90% | Pre-emergence action against VIOTR in % (VIOTR [12]; dosage 20 g/ha): 100% | Pre-emergence action against VIOTR in % (VIOTR [12]; dosage 80 g/ha): 100% | Pre-emergence action against DIGSA in % (DIGSA [13]; dosage 20 g/ha): 100% | Pre-emergence action against DIGSA in % (DIGSA [13]; dosage 80 g/ha): 100% | Post-emergence action against ABUTH in % (ABUTH [14]; dosage 5 g/ha): 80% | Post-emergence action against ABUTH in % (ABUTH [14]; dosage 20 g/ha): 80% | Post-emergence action against ALOMY in % (ALOMY [15]): 80% | Post-emergence action at 20 g/ha against AMARE in % (AMARE [16]): 100% | Post-emergence action against ECHCG in % (ECHCG [17]; dosage 20 g/ha): 80% | Post-emergence action against HORMU in % (HORMU [18]): 80% | Post-emergence action against MATIN in % (MATIN [19]; dosage 20 g/ha): 80% | Post-emergence action against PHBPU in % (PHBPU [20]; dosage 20 g/ha): 80% | Post-emergence action against STEME in % (STEME [21]; 20 g/ha): 80% | Post-emergence action against STEME in % (STEME [21]; dosage 5 g/ha): 80% | Post-emergence action against VERPE in % (VERPE [22]; 5 g/ha): 80% | Post-emergence action against VERPE in % (VERPE [22]; 20 g/ha): 80% | Post-emergence action against VIOTR in % (VIOTR [23]; 5 g/ha): 80% | Post-emergence action against VIOTR in % (VIOTR [23]; 20 g/ha): 80%

CCn1nnnc1NC(=O)c1ccc(C(F)F)c(C(=O)NC)c1SC [Example 2-87]
Pre-emergence action against ABUTH (herbicidal activity) (ABUTH [1]): 100% | Pre-emergence action against ABUTH (herbicidal activity in percent) (ABUTH [1]): 100% | Pre-emergence action against ALOMY (herbicidal activity) (ALOMY [2]): 80% | Pre-emergence action against AMARE in % (AMARE [3]; [27]): 100% | Pre-emergence action against AMARE in % (AMARE [3]; [28]): 100% | Pre-emergence action against AVEFA in % (AVEFA [4]): 90% | Pre-emergence action against ECHCG in % (ECHCG [5]; 20 g/ha): 80% | Pre-emergence action against ECHCG in % (ECHCG [5]; 80 g/ha): 100% | Pre-emergence action against HORMU in % (HORMU [6]): 80% | Pre-emergence action against LOLRI in % (LOLRI): 80% | Pre-emergence action against MATIN in % (MATIN [7]; dosage 20 g/ha): 90% | Pre-emergence action against MATIN in % (MATIN [7]; dosage 80 g/ha): 90% | Pre-emergence action against PHBPU in % (PHBPU [8]): 80% | Pre-emergence action against SETVI in % (SETVI [9]): 100% | Pre-emergence action against STEME in % (STEME [10]; dosage 20 g/ha): 100% | Pre-emergence action against STEME in % (STEME [10]; dosage 80 g/ha): 100% | Pre-emergence action against VERPE in % (VERPE [11]): 90% | Pre-emergence action against VIOTR in % (VIOTR [12]; dosage 20 g/ha): 90% | Pre-emergence action against VIOTR in % (VIOTR [12]; dosage 80 g/ha): 90% | Pre-emergence action against DIGSA in % (DIGSA [13]; dosage 20 g/ha): 100% | Pre-emergence action against DIGSA in % (DIGSA [13]; dosage 80 g/ha): 100% | Post-emergence action against ABUTH in % (ABUTH [14]; dosage 5 g/ha): 90% | Post-emergence action against ABUTH in % (ABUTH [14]; dosage 20 g/ha): 90% | Post-emergence action against ALOMY in % (ALOMY [15]): 80% | Post-emergence action at 20 g/ha against AMARE in % (AMARE [16]): 90% | Post-emergence action at 20 g/ha against AVEFA in % (AVEFA [24]): 80% | Post-emergence action against ECHCG in % (ECHCG [17]; dosage 5 g/ha): 80% | Post-emergence action against ECHCG in % (ECHCG [17]; dosage 20 g/ha): 80% | Post-emergence action against HORMU in % (HORMU [18]): 80% | Post-emergence action against MATIN in % (MATIN [19]; dosage 5 g/ha): 80% | Post-emergence action against MATIN in % (MATIN [19]; dosage 20 g/ha): 90% | Post-emergence action against PHBPU in % (PHBPU [20]; dosage 5 g/ha): 80% | Post-emergence action against PHBPU in % (PHBPU [20]; dosage 20 g/ha): 80% | Post-emergence action against SETVI in % (SETVI [25]; dosage 5 g/ha): 80% | Post-emergence action against SETVI in % (SETVI [25]; dosage 20 g/ha): 80% | Post-emergence action against STEME in % (STEME [21]; 20 g/ha): 90% | Post-emergence action against STEME in % (STEME [21]; dosage 5 g/ha): 80% | Post-emergence action against VERPE in % (VERPE [22]; 20 g/ha): 80% | Post-emergence action against VIOTR in % (VIOTR [23]; 20 g/ha): 100% | Post-emergence action against DIGSA in % (DIGSA [26]; 5 g/ha): 90% | Post-emergence action against DIGSA (DIGSA [26]; 20 g/ha): 90%
